Test results taken from patent US11648289B2, “Antibacterial method” (priority 2016, dated 2023).
No end group written: not given here.

Experiments:
B. cercus LMGT 2711 = system: B. cercus LMGT 2711
Experimental: (§1) Bacterial strains, growth conditions, bacteriocins and antimicrobial assays. All the strains (see below) used in minimal inhibitory concentration (MIC) assays (Varahan et al., 2014, M. Bio. 5:e01726-01714) were grown in BHI medium (Oxoid) at 30° C. without shaking. A collection of E. faecium strains isolated from blood in patients from different European hospitals was received from Department of Medical Microbiology, University Medical Center Utrecht, the Netherlands. […] Synthesized peptides were solubilized to concentrations of 10.0-0.1 mg/ml in 0.1% (vol/vol) trifluoroacetic acid and stored at −20° C. until use. […] Bacteriocin activity was determined by microtiter plate assay as previously described (Holo et al., 1991, J. Bacteriol., 173:3879-3887). The MIC was defined as the minimal bacteriocin concentration that inhibited the growth of the indicator strain by at least 50% (50% of the turbidity of the control culture without bacteriocin) in 200 μl culture. CD Spectroscopy Circular dichroism (CD) spectra were recorded using a Jasco J-810 spectropolarimeter (Jasco International Co) calibrated with D-camphor-10-sulfonate (Icatayama Chemical). All measurements were made using a quartz cuvette (Sterna) with 0.1 cm path length. Samples were scanned five times with a scanning rate of 50 nm/min with a bandwidth of 0.5 nm and response time of 1 s over the wavelength range 190-250 nm. Spectra were recorded at different (30 and 50%) trifluoroethanol (TFE) (Aldridge) concentrations at 25° C. The approximate α-helical content of the protein was estimated from its molar ellipticity at 222 nm (Scholtz et al., 1991, Biopolymers 31:1463-1470). NMR Spectroscopy The experiments were run on a sample containing 1.0 mM EntK1, 50% D3-TFE (99.5% D) (Aldrich), Milli-Q water and 0.2 mM of 4,4-dimethyl-4-silapentane-1-sulfonic acid (DSS) (Larodan). 2D NOESY (Jeener et al., 1979, J. Magn. Reson., 71:4546-4553), 2D TOCSY (Braunschweiler and Ernst, 1983, J. Magn. Reson., 53:521-528), 2D DQCOSY, ^15N-HSQC (Davis et al., 1992, J. Magn. Reson., 98:207-216) and ^13C-HSQC (Hurd, 1991, J. Magn. Reson., 91:648-653) were recorded. The data was acquired on a 600 MHz Bruker Avance II spectrometer with four channels and a 5 mm TCI cryoprobe (Bruker Biospin). NOESY spectra with mixing times between 120 ms and 300 ms were obtained for both samples. TOCSY mixing times of 15-80 ms were used. The experiments were run at 298.15 K. Spectra were processed using the Topspin program (Bruker Biospin). 4,4-dimethyl-4-silapentane-1-sulfonic acid (DSS) was used as a chemical shift standard, and ^15N and ^13C data were referenced using frequency ratios as described in (Wishart et al., 1995, J. Biomol. NMR., 6:135-140). For visualization, assignment and integration of the spectra the computer program CARA was used (Keller, 2004, The Computer Aided Resonance Assignment Tutorial. CANTINA Verlag, Goldau, Switzerland). The spectra were assigned using standard methods. Dihedral angle restraints were obtained from the chemical shift values using the program TALOS-N(Shen and Bax, 2013, J. Biomol. NMR, 56:227-241). Nuclear Overhauser effect (NOE) distance restraints were calculated from the peak volumes in the NOESY spectra with NOESY mixing time of 200 ms. All structure calculations were made using the structure calculation program CYANA 2.1 (Guntert et al., 1997, J. Mol. Biol., 273:283-298; Herrmann et al., 2002, J. Mol. Biol., 319:209-227). The annealing macro in CYANA calculated 100 structures. The 20 structures with the lowest energy were kept and analyzed further. The root-mean-square deviation (RMSD) was calculated and the structures were visualized using MolMol (Koradi et al., 1996, J. Mol. Graph., 14:51-55, 29-32). Generation of bacteriocin resistant mutants of E. faecalis and E. faecium.

B. cercus LMGT 2735 = system: B. cercus LMGT 2735
Experimental: as §1

B. cereus LMGT 2731 = system: B. cereus LMGT 2731
Experimental: as §1

[1] = system: Bacillus cereus LMGT 2805
Experimental: as §1

E. faecalis LMGT 3200 = system: E. faecalis LMGT 3200
Experimental: as §1

E. faecalis LMGT 3330 = system: E. faecalis LMGT 3330
Experimental: as §1

E. faecalis LMGT 3359 = system: E. faecalis LMGT 3359
Experimental: as §1

E. faecium LMGT 3193 = system: E. faecium LMGT 3193
Experimental: as §1

E. hirae LMGT 3236 = system: E. hirae LMGT 3236
Experimental: as §1

L. garvieae LMGT 2217 = system: L. garvieae LMGT 2217
Experimental: as §1

L. lactis IL1403 = system: L. lactis IL1403
Experimental: as §1

L. lactis LMGT 2233 = system: L. lactis LMGT 2233
Experimental: as §1

[2] = system: L. monocytogenes LMGT 2605
Experimental: as §1

[3] = system: Listeria monocytogenes LMGT 2651
Experimental: as §1

S. pneumoniae ds 221 = settings: ds 221, no rseP
Experimental: as §1

[4] = system: S. pneumoniae ds220 induced; settings: ds220 induced with ComS (2 μM), WT rseP
Experimental: as §1

[5] = system: S. pneumoniae ds220 non-induced; settings: WT rseP
Experimental: as §1

S. pneumoniae ms1 = settings: ms1, rseP H18>A, induced with ComS (2 μM)
Experimental: as §1

S. pneumoniae ms3 = settings: ms3, rseP H22>A, induced with ComS (2 μM)
Experimental: as §1

S. pneumoniae ms4 = settings: ms4, rseP Y24>A, induced with ComS (2 μM)
Experimental: as §1

S. pneumoniae ms5 = settings: for MIC: ms5, rseP HExxH>AAxxA, induced with ComS (2 μM)
Experimental: as §1

Sequence | MIC 50 (B. cercus LMGT 2711) | MIC 50 (B. cercus LMGT 2735) | MIC 50 (B. cereus LMGT 2731) | MIC 50 [1] | MIC 50 (E. faecalis LMGT 3200) | MIC 50 (E. faecalis LMGT 3330) | MIC 50 (E. faecalis LMGT 3359) | MIC 50 (E. faecium LMGT 3193) | MIC 50 (E. hirae LMGT 3236) | MIC 50 (L. garvieae LMGT 2217) | MIC 50 (L. lactis IL1403) | MIC 50 (L. lactis LMGT 2233) | MIC 50 [2] | MIC 50 [3] | MIC (S. pneumoniae ds 221) | MIC [4] | MIC [5] | MIC (S. pneumoniae ms1) | MIC (S. pneumoniae ms3) | MIC (S. pneumoniae ms4) | also measured
MKFKFNPTGTIVKKLTQYEIAWFKNKHGYYPWEIPRC [EntK1] | 2.75 µM | >5.5 µM | >5.5 µM | >5.5 µM | >5.5 µM | >5.5 µM | >5.5 µM | 0.085 µM | 0.045 µM | 0.34 µM | 0.17 µM | >5.5 µM | >5.5 µM | >5.5 µM | >5.5 µM | 0.7 µM | >5.5 µM | >5.5 µM | >5.5 µM | 0.7 µM | MIC (S. pneumoniae ms5): >5.5 µM
MKTILRFVAGYDIASHKKKTGGYPWERGKA [LsbB, reference compound] | >7 µM | >7 µM | >7 µM | >7 µM | >7 µM | >7 µM | >7 µM | >7 µM | >7 µM | >7 µM | 0.0005 µM | >7 µM | >7 µM | >7 µM | >7 µM | >7 µM | >7 µM | >7 µM | >7 µM | >7 µM | times more potent than EntEJ97 (L. lactis IL1403): ~70 times; times more potent than EntK1 (L. lactis IL1403): about 340 times; MIC (S. pneumoniae ms5): >7 µM
MLAKIKAMIKKFPNPYTLAAKLTTYEINWYKQQYGRYPWERPVA [EntEJ97] | >4.7 µM | >4.7 µM | >4.7 µM | >4.7 µM | 0.295 µM | 0.145 µM | 0.145 µM | 0.145 µM | 0.075 µM | 0.295 µM | 0.037 µM | 0.145 µM | 1.175 µM | 2.3 µM | >4.5 µM | 0.018 µM | >4.5 µM | 0.3 µM | 0.3 µM | 0.018 µM | times more resistant than the WT (S. pneumoniae ms5; all three conserved RseP residues replaced with alanines): 30 times; MIC (S. pneumoniae ms5): 0.6 µM
